Earlier results as cited in the CATMoS acute toxicity set (Mansouri et al. 2021).

Test: rat acute oral toxicity
Settings: in vivo

First: Clc1cc(Cl)c(Cl)cc1Cl
Second: Nc1cc(Cl)ccc1Oc1ccc(Cl)cc1Cl
The LD50 of the first is 1.5-fold lower: 1500 mg/kg for the first, 2290 mg/kg for the second.

Going from COc1ccc(OCCCN(C)CCOc2ccc3c(c2)OCO3)c(C2Sc3ccccc3N(C)C2=O)c1 (stereo not drawn) to COc1ccc2c(c1)N(C[C@H](C)CN(C)C)c1ccccc1S2, the LD50 rises from 206 mg/kg to 1100 mg/kg (5.3-fold).

Compared with CCC(Br)(CC)C(=O)NC(N)=O, CC(=O)NCCO is 85-fold higher in LD50: 316 mg/kg for the first, 27000 mg/kg for the second.

First: Nc1cc(S(=O)(=O)O)cc2cc(S(=O)(=O)O)c(/N=N\c3ccc(-c4ccc(/N=N/c5c(S(=O)(=O)O)cc6cc(S(=O)(=O)O)cc(N)c6c5O)cc4)cc3)c(O)c12
Second: Nc1ccc2cc(S(=O)(=O)O)cc(O)c2c1N=Nc1ccc(-c2ccc(N=Nc3ccc(O)c(C(=O)O)c3)cc2)cc1
The LD50 of the first is 2.6-fold lower: 8760 mg/kg for the first, 22400 mg/kg for the second.

Going from CCCCN(N=O)C(N)=O to O=NN(CCF)C(=O)NC1CCCCC1, the LD50 falls from 400 mg/kg to 18.5 mg/kg (22-fold).

First: CCCC(C(=O)c1ccc(C)cc1)N1CCCC1 (stereo not drawn)
Second: Cc1ccc(CO)cc1
The LD50 of the first is 6.3-fold lower: 620 mg/kg for the first, 3900 mg/kg for the second.

Compared with CC1(C)CC2(NC(=O)N(CCCN3CCC(O)CC3)C2=O)c2cc(Cl)ccc2O1 (stereo not drawn), O=C(CCCN1CCN(c2ccccc2)CC1)c1ccc(F)cc1 is 1.6-fold lower in LD50: 858 mg/kg for the first, 550 mg/kg for the second.

Compared with O=C(CO)c1coc(=O)c2c(O)cccc12, CCc1cccc(CC)c1N(CC(=O)O)C(=O)CCl is 9.2-fold higher in LD50: 250 mg/kg for the first, 2300 mg/kg for the second.

NC(=O)c1ccc(Cl)c(N)c1 and Cc1cc(Cl)ccc1OC(C)C(=O)N(C)C (stereo not drawn) are within 1.5-fold of each other in LD50: 900 mg/kg for the first, 800 mg/kg for the second.

Going from CNC(=O)ON=C1CSCS1 to NC(=O)ON=C1CSCCS1, the LD50 rises from 13 mg/kg to 52 mg/kg (4-fold).

Compared with COc1ccc(C(Oc2ccccc2)C2=NCCCN2)cc1 (stereo not drawn), CN1CCC[C@@H]1CCO[C@](C)(c1ccccc1)c1ccc(Cl)cc1 is 3.5-fold higher in LD50: 1000 mg/kg for the first, 3550 mg/kg for the second.

Compared with CCOc1ccc2c(OS(=O)(=O)O)c(-c3sc4cc(OCC)ccc4c3OS(=O)(=O)O)sc2c1, CCOc1cc(OCC)c(C(=O)CCC(=O)O)cc1OCC is 2.7-fold lower in LD50: 6700 mg/kg for the first, 2450 mg/kg for the second.

CCCCCCCl and CCCCCCCCCCCCCCCCCC(=O)NCCC[N+](C)(C)CCO are within 1.5-fold of each other in LD50: 7000 mg/kg for the first, 8100 mg/kg for the second.

Going from C[C@@H]1O[C@@H](O[C@@H]2C=C3CC[C@@H]4[C@H](CC[C@]5(C)[C@@H](c6ccc(=O)oc6)CC[C@]45O)[C@@]3(C)CC2)[C@H](O)[C@H](O)[C@H]1O to CC1CC(Cl)CCC1C(=O)OC(C)(C)C (stereo not drawn), the LD50 rises from 56 mg/kg to 4560 mg/kg (81-fold).

Compared with Nc1ccc2[nH]c3ccc(N)cc3c2c1, Nc1ccncc1 is 32-fold lower in LD50: 1040 mg/kg for the first, 32 mg/kg for the second.

Compared with CC(=O)Nc1ccc2nc(C(F)(F)F)[nH]c2c1, CC(=O)Nc1ccc([N+](=O)[O-])c(Cl)n1 is 82-fold higher in LD50: 23.8 mg/kg for the first, 1940 mg/kg for the second.

Going from CC(C)NC1CCC(c2ccccc2)(c2ccccc2)CC1 to CCC1(c2ccccc2)CCNC1=O (stereo not drawn), the LD50 rises from 623 mg/kg to 990 mg/kg (1.6-fold).

Compared with Cc1ccc(C(C)C)cc1, COc1ccc(C=O)cc1 is 3.1-fold lower in LD50: 4750 mg/kg for the first, 1510 mg/kg for the second.

Going from CC(=O)c1ccc(C(O)C(CO)NC(=O)C(Cl)Cl)cc1 (stereo not drawn) to CC(=O)c1ccc2c(c1)N(CCCN(C)C)c1ccccc1S2, the LD50 falls from 1100 mg/kg to 400 mg/kg (2.8-fold).

Going from CCOC(=O)C(Cl)=NNc1ccccc1 to CCN(CC)CCOC(=O)CC(O)(c1ccccc1)c1ccccc1, the LD50 falls from 13000 mg/kg to 2310 mg/kg (5.6-fold).

Compared with Nc1nc(N)nc(NC2CC2)n1, CC(C)NCC1CCc2cc(CO)c([N+](=O)[O-])cc2N1 (stereo not drawn) is 110-fold lower in LD50: 3390 mg/kg for the first, 30 mg/kg for the second.

First: CN(C)[C@@H]1C(O)=C(C(N)=O)C(=O)[C@@]2(O)C(O)=C3C(=O)c4c(O)ccc(Cl)c4[C@@H](O)[C@H]3C[C@@H]12
Second: CN(C)CC(=O)N/N=C/c1c(Cl)nc2sccn12
The LD50 of the first is 1.6-fold higher: 2370 mg/kg for the first, 1500 mg/kg for the second.

COC(C)=O and CO[SiH](OC)OC are within 1.5-fold of each other in LD50: 6480 mg/kg for the first, 9330 mg/kg for the second.

Compared with Cc1ccc(C=O)o1, O=NN1CCc2ccccc21 is 6.9-fold lower in LD50: 2200 mg/kg for the first, 320 mg/kg for the second.

Going from BrC(Br)C(Br)Br to CC(C)OC(C)C, the LD50 rises from 1200 mg/kg to 8470 mg/kg (7.1-fold).

Cc1ccccc1OCC(COC(O)C(Cl)(Cl)Cl)OC(O)C(Cl)(Cl)Cl (stereo not drawn) and CC(CN(C)C)CN1c2ccccc2CCc2ccccc21 (stereo not drawn) are within 1.5-fold of each other in LD50: 880 mg/kg for the first, 800 mg/kg for the second.

Compared with CCOP(=O)(OCC)SCC(C)(SCC)SCC, CCOP(=O)(OCC)SCCC(F)=C(F)F is 4.5-fold higher in LD50: 15 mg/kg for the first, 68 mg/kg for the second.

Going from C=CC(=O)NCNC(=O)C=C to C=CCSCC=C, the LD50 rises from 390 mg/kg to 2980 mg/kg (7.6-fold).

Going from S=c1[nH]cnc2[nH]cnc12 to Cc1sc2ccccc2c1CC1=NCCN1, the LD50 falls from 277 mg/kg to 74 mg/kg (3.7-fold).

C=CCON/C(CCC)=C1\C(=O)CC(C)(C)C(C(=O)OC)=C1O and CC[C@@H](CO)NC(=O)[C@@H]1C=C2c3cccc4c3c(cn4C)C[C@H]2N(C)C1 are within 1.5-fold of each other in LD50: 2260 mg/kg for the first, 2100 mg/kg for the second.

First: CCOP(=S)(OCC)SCc1ccc([N+](=O)[O-])cc1
Second: COP(=S)(OC)SC(CC(=O)OC(C)C)C(=O)OC(C)C (stereo not drawn)
The LD50 of the first is 40-fold lower: 100 mg/kg for the first, 4000 mg/kg for the second.

Going from O=[N+]([O-])OC1COC2C(O)COC12 (stereo not drawn) to N#CC1CCCCC1, the LD50 falls from 2300 mg/kg to 80 mg/kg (29-fold).

Going from CC(C)N1C(=O)N(c2ccccc2)CSC1=NC(C)(C)C to O=S(=O)(O)c1ccccc1C=Cc1ccc(-c2ccc(C=Cc3ccccc3S(=O)(=O)O)cc2)cc1, the LD50 rises from 2200 mg/kg to 5580 mg/kg (2.5-fold).

Cc1ccc(C2=CCN(CC=Cc3ccc4c(c3)CCC(=O)N4)CC2)cc1 and C=CC[N+]1(CCC(C)CCCC(C)C)CCCCC1 (stereo not drawn) are within 1.5-fold of each other in LD50: 500 mg/kg for the first, 360 mg/kg for the second.
